The text below walks through data of patent US11464777B2, “Pharmaceutical composition for the treatment of pulmonary arterial hypertension” (Actelion Pharmaceuticals Ltd, priority 2018, dated 2022).

For data set [1], the system named is ET receptors (ETA and ETB). Conditions: cited from earlier work.
The test system of another data set is CYP3A4. The data set is described as follows: CYP3A4 induction in human hepatocytes. In kind it is in vitro ADME.
Data set [2] in a line: Drug-drug interaction observations.
A further data set deals with T1, human PXR (Homo sapiens, UniProt O75469).
T1 sequence (O75469 1-434): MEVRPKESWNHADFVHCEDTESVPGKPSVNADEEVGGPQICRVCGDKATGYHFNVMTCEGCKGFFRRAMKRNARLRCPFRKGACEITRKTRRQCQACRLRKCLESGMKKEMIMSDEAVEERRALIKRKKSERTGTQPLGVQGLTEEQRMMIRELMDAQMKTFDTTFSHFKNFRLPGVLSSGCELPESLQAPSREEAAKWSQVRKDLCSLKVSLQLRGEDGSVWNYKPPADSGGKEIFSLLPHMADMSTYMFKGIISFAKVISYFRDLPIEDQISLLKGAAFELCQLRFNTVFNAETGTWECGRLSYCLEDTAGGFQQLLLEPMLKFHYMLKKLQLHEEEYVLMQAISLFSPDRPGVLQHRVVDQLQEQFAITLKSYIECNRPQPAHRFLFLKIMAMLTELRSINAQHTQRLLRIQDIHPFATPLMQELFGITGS
The experiment in a line: Activation of human PXR. In kind it is cell-based.

For data set [3] the following is noted: cited from earlier work.
The target of the next data set is T2, BCRP transporters (Homo sapiens, UniProt Q9UNQ0).
T2 construct: BCRP is an efflux pump located in the gut, liver canalicular membrane, and kidney; from tissue; host or cells: gut, liver, kidney of dosed subjects (in vivo)
T2 sequence (Q9UNQ0 1-655): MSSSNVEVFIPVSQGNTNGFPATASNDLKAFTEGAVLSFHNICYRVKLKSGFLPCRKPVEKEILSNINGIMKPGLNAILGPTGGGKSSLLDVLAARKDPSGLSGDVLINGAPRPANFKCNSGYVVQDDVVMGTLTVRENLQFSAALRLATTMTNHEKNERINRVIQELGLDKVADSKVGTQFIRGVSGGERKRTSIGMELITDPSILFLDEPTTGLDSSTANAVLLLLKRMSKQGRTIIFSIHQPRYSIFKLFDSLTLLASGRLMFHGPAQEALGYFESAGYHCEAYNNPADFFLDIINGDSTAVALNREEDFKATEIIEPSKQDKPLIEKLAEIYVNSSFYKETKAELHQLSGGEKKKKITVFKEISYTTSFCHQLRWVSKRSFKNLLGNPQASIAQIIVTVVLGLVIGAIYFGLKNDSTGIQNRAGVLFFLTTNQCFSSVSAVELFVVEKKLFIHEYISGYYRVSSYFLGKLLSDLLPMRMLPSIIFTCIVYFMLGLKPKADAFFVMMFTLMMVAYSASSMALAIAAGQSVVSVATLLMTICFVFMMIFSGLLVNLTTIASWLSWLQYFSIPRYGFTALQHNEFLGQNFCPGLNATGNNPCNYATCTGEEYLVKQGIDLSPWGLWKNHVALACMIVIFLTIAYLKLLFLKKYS
The experiment in a line: Effect on pharmacokinetics of rosuvastatin (BCRP transporters). The format is in vivo. The conditions noted are these: macitentan 10 mg per day o.d. From the text: BCRP is an efflux pump located in the gut, liver canalicular membrane, and kidney, and is exposed to intracellular drug concentrations in the liver and the kidney.

The next data set deals with rats. Conditions: cited from earlier work.
The nature of data set [4]: Effect of macitentan on decrease in hemoglobin concentration, pooled Phase I studies, Emax model. In kind it is in vivo, human. Conditions: healthy volunteers. The text has this:
Hemoglobin measurements were pooled from 3 Phase I clinical studies in healthy volunteers:
Study AC-055-102: Investigation of the PK, PD, safety and tolerability of macitentan in male subjects (the study protocol is described in the following publication: Sidharta et al., Safety, tolerability, pharmacokinetics, and pharmacodynamics of macitentan, an endothelin receptor antagonist, in an ascending multiple-dose study in healthy subjects. J. Clin. Pharmacol. (2013), 53(11),1131-1138)
Study AC-055-116: Investigation of the PK, PD, safety and tolerability of macitentan in male Japanese subjects (the study protocol is described in the following publication: Yokoyama et al., Tolerability, Safety, Pharmacokinetics, and Pharmacodynamics of Macitentan, a New Endothelin Receptor Antagonist, in Healthy Japanese Male Subjects. Rinsho yakuri/Japanese Journal of Clinical Pharmacology and Therapeutics (2016), 47, 143-150) […]
Hemoglobin concentrations measured in the morning of Day 11 of macitentan treatment and at baseline on Day −1 were used in the analysis. […]

The test system of another data set is plasma ET-1. The conditions noted are these: healthy human subjects, 1, 3, 10 and 30 mg; cited from earlier work.

Take `NS(=O)(=O)Nc1ncnc(OCCOc2ncc(Br)cn2)c1-c1ccc(Br)cc1` [ACT-132577]: the “affinity for the ET receptors relative to parent compound” value in [1] is on record as “lower affinity”. Further, the “CYP3A4 mRNA and enzyme activity” value in the data set with CYP3A4 was “concentration-dependent increases”. In data set [2], the “Drug-Drug Interaction” value was “No Drug-Drug Interaction has been observed”. On human PXR, this compound gave an EC50 of 7.2 to 8.7 µM. The “time to peak plasma concentration” value in [3] (after the first dose of macitentan) is “about 30 hours”. Also, in [3] (humans), the half-life in humans entry is “approximately 48 hours” and the “plasma concentrations relative to macitentan” value is “higher plasma concentrations than macitentan”.
For `CCCNS(=O)(=O)Nc1ncnc(OCCOc2ncc(Br)cn2)c1-c1ccc(Br)cc1` [macitentan, propylsulfamic acid [5-(4-bromo-phenyl)-6-[2-(5-bromo-pyrimidin-2-yloxy)-ethoxy]-pyrimidin-4-yl]-amide], the “effect on the pharmacokinetics of 1 mg rosuvastatin” value on BCRP transporters was “has not shown any effect”. Besides, the “dose of maximal or near-maximal effect in rats” value in the data set on rats (EMA Assessment Report) is reported as 10 mg/kg. In the data set on rats (Iglarz 2014, Kunita-Takanezawa 2014), the “maximal effective dose in rats” value was 30 mg/kg. Further, the “CYP3A4 mRNA and enzyme activity” value in the data set on CYP3A4 is listed as “concentration-dependent increases”. Moreover, in [2], the “Drug-Drug Interaction” value was “No Drug-Drug Interaction has been observed”. The same compound had an EC50 on human PXR of 1.1 to 1.2 µM. The “dose at which effect on hemoglobin decrease plateaus” value in data set [4] (Day 11 vs baseline Day -1) was 10 mg. In data set [4] (Day 11 vs baseline Day -1, nonlinear regression), the “maximum effect on hemoglobin decrease (Emax)” value is on record as “around 1.23 g/dL”. For the same compound, the “time to steady state” value in data set [3] (humans, repeated administration) is “steady state is reached by the third day of administration”. Also, in data set [3] (humans), the “absorption into the plasma” value is given as “absorbed slowly” and the half-life in humans entry is given as “about 16 hours”. Also, the “plasma ET-1 concentrations at steady-state” value with plasma ET-1 was “dose-dependent increase, with no further increase beyond the 10 mg oral dose”.
